Experimental findings from article PMC6934184, “Selective DNA-PKcs inhibition extends the therapeutic index of localized radiotherapy and chemotherapy” (The Journal of Clinical Investigation, 2019) are described below.

The assay deals with T1, MAP3K14 (NIK) (Homo sapiens, UniProt Q99558).
T1 construct: purchased Thermo Fisher Scientific (Life Technologies) SelectScreen
Put plainly: SelectScreen LanthaScreen. It counts as binding. To be noted: read-out: % displacement. In outline: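 NU5455 was profiled across the SelectScreen Broad panel of kinase activity and binding assays. Z'LYTE reactions such as CSF1R ran at apparent Km ATP, while the Adapta CAMK1 assay used ATP listed as 10. Values are given as percent.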

T1 sequence (Q99558 whole entry): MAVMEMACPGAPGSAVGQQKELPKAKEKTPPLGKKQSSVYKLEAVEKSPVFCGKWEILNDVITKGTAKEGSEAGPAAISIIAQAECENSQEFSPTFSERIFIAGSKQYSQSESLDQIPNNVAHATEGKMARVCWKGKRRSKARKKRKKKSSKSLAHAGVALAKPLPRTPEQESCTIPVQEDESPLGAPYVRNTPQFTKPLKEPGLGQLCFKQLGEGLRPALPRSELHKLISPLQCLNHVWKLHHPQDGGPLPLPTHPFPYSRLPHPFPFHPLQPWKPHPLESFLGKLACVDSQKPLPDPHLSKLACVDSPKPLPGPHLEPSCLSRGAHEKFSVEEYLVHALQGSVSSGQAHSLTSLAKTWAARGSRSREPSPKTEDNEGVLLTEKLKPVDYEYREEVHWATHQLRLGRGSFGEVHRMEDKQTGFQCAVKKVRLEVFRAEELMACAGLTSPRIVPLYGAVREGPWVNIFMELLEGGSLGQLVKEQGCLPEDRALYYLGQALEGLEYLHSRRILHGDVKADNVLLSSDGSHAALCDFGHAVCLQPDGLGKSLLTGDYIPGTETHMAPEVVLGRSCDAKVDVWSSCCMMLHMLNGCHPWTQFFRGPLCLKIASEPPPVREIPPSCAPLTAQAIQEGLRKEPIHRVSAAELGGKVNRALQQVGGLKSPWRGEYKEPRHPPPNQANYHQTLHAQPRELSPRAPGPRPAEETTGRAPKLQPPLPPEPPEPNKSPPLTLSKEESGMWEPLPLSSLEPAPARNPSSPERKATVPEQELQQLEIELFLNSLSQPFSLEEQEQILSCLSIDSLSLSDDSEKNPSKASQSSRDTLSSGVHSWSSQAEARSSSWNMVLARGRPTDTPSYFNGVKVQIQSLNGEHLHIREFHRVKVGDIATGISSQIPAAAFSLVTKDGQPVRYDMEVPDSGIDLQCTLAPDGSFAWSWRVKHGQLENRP

Regarding `CN(C(=O)CN1CCOCC1)c1ccc2sc3c(-c4cccc5c(=O)cc(N6CC7CCC(C6)O7)oc45)cccc3c2c1` [NU5455], the inhibition at 1 µM is -0.5%.
